IC50 data for 24 compounds are collected here from US20250136570A1 (Tango Therapeutics, Inc., priority 2021, published 2025).

Where only a bound is given, the exact number is not on record here.

One experiment concerns the target HDAC3/NCor2 (Homo sapiens (Human), UniProt O15379). Kind of experiment: HDAC3 inhibition, Fluor de Lys fluorescent enzyme assay. Format: biochemical. The conditions noted are these: 3 hours pre-incubation at room temp; 1.2 nM enzyme; 16 μM Fluor de Lys substrate; duplicate. In short, it runs like this: (§1)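 Enzyme (HDAC1 6 nM, HDAC3/NCor2 1.2 nM final) pre-incubated with compound 3 h at ~22 °C in Tris pH 8 buffer with 0.01% BSA. Reaction run 1 h with 16 μM Fluor de Lys substrate and stopped with TSA-containing developer. Fluorescence read at Ex 360/Em 460; IC50 from an occupancy equation with Hill coefficient, in duplicate.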

In a further experiment the target is Recombinant HDAC1 (Homo sapiens (Human), UniProt Q13547). Briefly: HDAC1 inhibition, Fluor de Lys fluorescent enzyme assay. Format: biochemical. The conditions noted are these: 3 hours pre-incubation at room temp; 6 nM enzyme; 16 μM Fluor de Lys substrate; duplicate. The method in brief: as §1
Recombinant HDAC1, sequence (Q13547 whole entry): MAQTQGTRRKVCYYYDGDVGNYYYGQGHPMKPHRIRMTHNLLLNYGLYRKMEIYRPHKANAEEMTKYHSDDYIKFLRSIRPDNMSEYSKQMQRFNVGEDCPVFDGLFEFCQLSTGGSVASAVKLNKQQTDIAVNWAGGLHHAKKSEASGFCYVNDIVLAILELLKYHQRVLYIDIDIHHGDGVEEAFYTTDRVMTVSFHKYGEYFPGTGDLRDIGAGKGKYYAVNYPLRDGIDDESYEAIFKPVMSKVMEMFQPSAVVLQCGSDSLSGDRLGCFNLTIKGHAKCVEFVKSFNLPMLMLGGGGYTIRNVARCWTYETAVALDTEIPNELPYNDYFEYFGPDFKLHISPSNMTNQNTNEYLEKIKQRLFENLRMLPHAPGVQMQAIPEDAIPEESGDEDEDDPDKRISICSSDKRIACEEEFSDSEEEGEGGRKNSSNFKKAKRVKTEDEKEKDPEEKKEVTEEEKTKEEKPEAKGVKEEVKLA

HDAC3/NCor2, sequence (O15379 whole entry): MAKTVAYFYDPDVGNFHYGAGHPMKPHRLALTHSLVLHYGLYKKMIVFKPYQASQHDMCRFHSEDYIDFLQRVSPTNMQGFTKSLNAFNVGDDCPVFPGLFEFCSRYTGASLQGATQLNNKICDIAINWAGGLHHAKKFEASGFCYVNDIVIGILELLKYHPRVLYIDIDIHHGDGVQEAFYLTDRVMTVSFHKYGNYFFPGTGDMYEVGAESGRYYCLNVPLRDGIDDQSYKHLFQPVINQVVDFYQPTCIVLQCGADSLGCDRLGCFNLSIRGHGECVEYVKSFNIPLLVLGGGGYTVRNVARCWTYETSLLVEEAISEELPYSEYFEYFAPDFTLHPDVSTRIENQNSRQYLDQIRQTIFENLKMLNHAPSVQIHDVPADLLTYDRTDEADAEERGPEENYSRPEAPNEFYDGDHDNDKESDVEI
HDAC3/NCor2, sequence (Q9Y618 395-489 partner): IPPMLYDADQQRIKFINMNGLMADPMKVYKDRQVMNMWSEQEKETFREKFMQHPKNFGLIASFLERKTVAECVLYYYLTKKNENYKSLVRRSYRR

As usually defined, the IC50 is the concentration at which inhibition is half-maximal. With `CS(=N)(=O)c1ccc(C(=O)Nc2cc(-c3cncnc3)ccc2N)cc1` (stereo not drawn) [Compound 151, N-(2-amino-5-pyrimidin-5-yl-phenyl)-4-(methylsulfonimidoyl)benzamide], the IC50 on HDAC3/NCor2 and at Recombinant HDAC1 was more than 2000 nM each time.
Regarding `CS(=N)(=O)c1ccc(C(=O)Nc2cc(-c3ccc(Cl)cc3)ccc2N)cc1` (stereo not drawn) [Compound 182, N-[2-amino-5-(4-chlorophenyl)phenyl]-4-(methylsulfonimidoyl)benzamide], the IC50 at HDAC3/NCor2 is more than 2000 nM; at Recombinant HDAC1, less than 100 nM.
With `C=C(C)c1cncc(S(=N)(=O)c2ccc(C(=O)Nc3cc(-c4ccc(F)cc4)ccc3N)cc2)c1` (stereo not drawn) [Compound 225, N-[2-amino-5-(4-fluorophenyl)phenyl]-4-[(5-isopropenyl-3-pyridyl)sulfonimidoyl]benzamide], the IC50 against HDAC3/NCor2 is 500 to 2000 nM; at Recombinant HDAC1, less than 100 nM.
For `N=S(=O)(c1ccc(C(=O)Nc2cc(-c3ccc(F)cc3)ccc2N)cc1)c1ccc(C(F)(F)F)cc1` (stereo not drawn) [Compound 256, N-[2-amino-5-(4-fluorophenyl)phenyl]-4-[[4-(trifluoromethyl)phenyl]sulfonimidoyl]benzamide], in that order: more than 2000 nM and less than 100 nM.
For the compound `CS(=N)(=O)c1ccc(C(=O)Nc2cc(C#CC3CC3)ccc2N)cc1` (stereo not drawn) [Compound 155, N-[2-amino-5-(2-cyclopropylethynyl)phenyl]-4-(methylsulfonimidoyl)benzamide], the IC50 against HDAC3/NCor2 and at Recombinant HDAC1 was more than 2000 nM in each case.
Turning to `CS(=N)(=O)c1ccc(C(=O)Nc2cc(-c3ccc(F)cc3F)ccc2N)cc1` (stereo not drawn) [Compound 117, N-[2-amino-5-(2,4-difluorophenyl)phenyl]-4-(methylsulfonimidoyl)benzamide], the IC50 on HDAC3/NCor2 was more than 2000 nM; on Recombinant HDAC1, less than 100 nM.
For `Nc1ccc(-c2ccc(F)cc2)cc1NC(=O)c1ccc([S@]2(=O)=NCCC2)cc1` (stereo in doubt) [Compound 184, N-[2-amino-5-(4-fluorophenyl)phenyl]-4-[rel-(1S)-1-oxo-4,5-dihydro-3H-isothiazol-1-yl]benzamide], in that order: 500 to 2000 nM and less than 100 nM.
Taken in the same sequence, the figures for `CS(=N)(=O)c1ccc2sc(C(=O)Nc3cc(-c4cccs4)ccc3N)cc2c1` (stereo not drawn) [Compound 138, N-[2-amino-5-(2-thienyl)phenyl]-5-(methylsulfonimidoyl)benzothiophene-2-carboxamide] were 500 to 2000 nM and less than 100 nM.
For the compound `N=S(=O)(c1ccncc1)c1ccc(C(=O)Nc2cc(-c3ccc(F)cc3)ccc2N)cc1` (stereo not drawn) [Compound 168, N-[2-amino-5-(4-fluorophenyl)phenyl]-4-(4-pyridylsulfonimidoyl)benzamide], the figures for the IC50 at HDAC3/NCor2 and on Recombinant HDAC1 were 500 to 2000 nM and less than 100 nM, respectively.
Take `CS(=N)(=O)c1ccc(C(=O)Nc2cc(-c3cccc(C(N)=O)c3)ccc2N)cc1` (stereo not drawn) [Compound 180, 3-[4-amino-3-[[4-(methylsulfonimidoyl)benzoyl]amino]phenyl]benzamide]: the IC50 against HDAC3/NCor2 is more than 2000 nM; at Recombinant HDAC1, less than 100 nM.
Taken in the same sequence, the figures for `N=S(=O)(c1ccc(C(=O)Nc2cc(-c3ccc(F)cc3)ccc2N)cc1)c1cncc(F)c1` (stereo not drawn) [Compound 206, N-(4-amino-4′-fluoro-[1,1′-biphenyl]-3-yl)-4-(5-fluoropyridine-3-sulfonimidoyl)benzamide] were 500 to 2000 nM and less than 100 nM.
On to `CS(=N)(=O)c1ccc(C(=O)Nc2cc(-c3ccc(F)cc3)ccc2N)cn1` (stereo not drawn) [Compound 129, N-[2-amino-5-(4-fluorophenyl)phenyl]-6-(methylsulfonimidoyl)pyridine-3-carboxamide], for which the results for the IC50 against HDAC3/NCor2 and on Recombinant HDAC1 were 500 to 2000 nM and less than 100 nM, respectively.
Taken in the same sequence, the figures for `N=S(=O)(c1ccc(C(=O)Nc2cc(-c3ccc(F)cc3)ccc2N)cc1)c1ccc(C(F)(F)F)nc1` (stereo not drawn) [Compound 205, N-[2-amino-5-(4-fluorophenyl)phenyl]-4-[[6-(trifluoromethyl)-3-pyridyl]sulfonimidoyl]benzamide] were more than 2000 nM and less than 100 nM.
Taken in the same sequence, the figures for `CS(=N)(=O)c1ccc(C(=O)Nc2cc(-c3ncccn3)ccc2N)cc1` (stereo not drawn) [Compound 158, N-(2-amino-5-pyrimidin-2-yl-phenyl)-4-(methylsulfonimidoyl)benzamide] were more than 2000 nM and 500 to 2000 nM.
Taken in the same sequence, the figures for `N=S(=O)(c1ccc(C(=O)Nc2cc(-c3ccc(F)cc3)ccc2N)cc1)c1ccc(CO)nc1` (stereo not drawn) [Compound 208] were 500 to 2000 nM and less than 100 nM.
Consider `N=S(=O)(c1ccc(C(=O)Nc2cc(-c3cccnc3)ccc2N)cc1)C1CC1` (stereo not drawn) [Compound 116, N-[2-amino-5-(3-pyridyl)phenyl]-4-(cyclopropylsulfonimidoyl)benzamide], for which the IC50 at HDAC3/NCor2 is 500 to 2000 nM; on Recombinant HDAC1, less than 100 nM.
As for `N=S(=O)(c1ccc(C(=O)Nc2cc(-c3ccc(F)cc3)ccc2N)cc1)c1ccc(F)c(F)c1` (stereo not drawn) [Compound 221, N-[2-amino-5-(4-fluorophenyl)phenyl]-4-[(3,4-difluorophenyl)sulfonimidoyl]benzamide], the IC50 against HDAC3/NCor2 was 500 to 2000 nM; on Recombinant HDAC1, less than 100 nM.
For `CS(=N)(=O)c1ccc2oc(C(=O)Nc3cc(-c4ccc(F)cc4)ccc3N)cc2n1` (stereo not drawn) [Compound 189, N-[2-amino-5-(4-fluorophenyl)phenyl]-5-(methylsulfonimidoyl)furo[3,2-b]pyridine-2-carboxamide], in that order: 500 to 2000 nM and less than 100 nM.
For `CS(=N)(=O)c1ccc(C(=O)Nc2cc(-c3cccs3)ccc2N)nn1` (stereo not drawn) [Compound 124, N-[2-amino-5-(2-thienyl)phenyl]-6-(methylsulfonimidoyl)pyridazine-3-carboxamide], in that order: 100 to 500 nM and less than 100 nM.
For `N=S(=O)(c1ccc(C(=O)Nc2cc(-c3ccc(F)cc3)ccc2N)cc1)c1ccc(=O)[nH]c1` (stereo not drawn) [Compound 192, N-[2-amino-5-(4-fluorophenyl)phenyl]-4-[(6-oxo-1H-pyridin-3-yl)sulfonimidoyl]benzamide], in that order: 500 to 2000 nM and less than 100 nM.
As to `CS(=N)(=O)c1ccc(C(=O)Nc2cc(-c3ccncc3)ccc2N)cc1` (stereo not drawn) [Compound 108, N-[2-amino-5-(4-pyridyl)phenyl]-4-(methylsulfonimidoyl)benzamide], the IC50 at HDAC3/NCor2 was more than 2000 nM; at Recombinant HDAC1, less than 100 nM.
For the compound `N=S(=O)(c1ccc(C(=O)Nc2cc(-c3cccs3)ccc2N)cc1)c1ccccn1` (stereo not drawn) [Compound 150, N-[2-amino-5-(2-thienyl)phenyl]-4-(2-pyridylsulfonimidoyl)benzamide], the IC50 against HDAC3/NCor2 was 500 to 2000 nM; on Recombinant HDAC1, less than 100 nM.
On to `N=S(=O)(c1ccc(C(=O)Nc2cc(-c3cccs3)ccc2N)cn1)C1CC1` (stereo not drawn) [Compound 122, N-[2-amino-5-(2-thienyl)phenyl]-6-(cyclopropylsulfonimidoyl)pyridine-3-carboxamide], for which the IC50 was 500 to 2000 nM against HDAC3/NCor2 and less than 100 nM on Recombinant HDAC1.
Taken in the same sequence, the figures for `[2H]c1c([2H])c(-c2ccc(N)c(NC(=O)c3ccc(S(C)(=N)=O)cc3)c2)c([2H])c([2H])c1F` (stereo not drawn) [Compound 223, N-[2-amino-5-(2,3,5,6-tetradeutero-4-fluoro-phenyl)phenyl]-4-(methylsulfonimidoyl)benzamide] were 500 to 2000 nM and less than 100 nM.
